Laboratory results from US9643930B2, “Substituted indazole derivatives as in vitro MAO-B inhibitors” (“NTZ LAB” LTD., priority 2013, dated 2017).

Target: T1, rat MAO-B (Rattus norvegicus, UniProt P19643)
T1 construct: from tissue; host or cells: rat liver mitochondria (male Sprague-Dawley rats)
T1 sequence (P19643 1-520): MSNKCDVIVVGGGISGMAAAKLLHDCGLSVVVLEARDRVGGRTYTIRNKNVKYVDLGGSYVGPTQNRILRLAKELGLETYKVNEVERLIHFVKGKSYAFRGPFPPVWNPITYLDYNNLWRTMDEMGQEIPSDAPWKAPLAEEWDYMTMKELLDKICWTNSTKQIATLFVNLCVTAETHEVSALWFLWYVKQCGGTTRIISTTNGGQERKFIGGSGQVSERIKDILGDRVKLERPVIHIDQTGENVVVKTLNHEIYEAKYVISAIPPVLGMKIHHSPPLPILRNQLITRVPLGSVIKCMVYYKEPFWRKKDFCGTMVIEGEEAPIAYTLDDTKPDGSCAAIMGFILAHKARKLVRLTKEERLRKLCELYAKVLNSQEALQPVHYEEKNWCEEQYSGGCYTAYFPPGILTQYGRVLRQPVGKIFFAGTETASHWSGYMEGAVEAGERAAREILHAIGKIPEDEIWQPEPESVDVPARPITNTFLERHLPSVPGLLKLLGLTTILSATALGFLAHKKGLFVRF
Assay: Rat MAO-B assay (Amplex Red fluorescence, rat liver mitochondria pre-treated with clorgyline 30 nM)
Format: biochemical
Conditions: rat liver mitochondria pre-treated with clorgyline 30 nM; read-out: rat MAO-B (rat liver mitochondria) IC50
Procedure: Male Sprague-Dawley (Harlan Sprague Dawley, Dublin, Va., US) rats (250-300 g) were sacrificed under light anesthesia and their livers were dissected. […] After homogenization, the volume is adjusted to 100 mL with the same buffer. After a low speed centrifugation (10 min at 600 g; 4° C.), the supernatant is further centrifuged at 15,000 rpm for 5 min at +4° C. The resulting pellet was resuspended in 2.0 mL of a 50 mM sodium/phosphate buffer (pH 7.4) and stored at −80° C. in aliquots of 1.0 mL each until further use.
The Amplex® Red reagent was prepared as recommended in the kit from Invitrogen (A12214). […] Clorgyline (1.0 μM) from Sigma Aldrich (M3778) was used to determine non-MAO-A enzyme activity and concentration-response curves of clorgyline serve as positive control.
Cn1cc2cc(C(=O)Nc3ccc(F)c(Cl)c3)ccc2n1 [Example 18, N-(3-chloro-4-fluorophenyl)-2-methyl-2H-indazole-5-carboxamide] showed an IC50 of 20.3 ± 3 nM. With Cn1cc2cc(C(=O)Nc3ccc(F)c(F)c3)ccc2n1 [Example 20, N-(3,4-difluorophenyl)-2-methyl-2H-indazole-5-carboxamide] the IC50 was 221 ± 21 nM. With O=C(Nc1cnc(Cl)c(Cl)c1)c1ccc2[nH]ncc2c1 [Example 12, N-(5,6-dichloropyridin-3-yl)-1H-indazole-5-carboxamide] the IC50 was 26.6 ± 1.5 nM. For Cn1ncc2cc(C(=O)Nc3ccc(F)c(F)c3)ccc21 [Example 19, N-(3,4-difluorophenyl)-1-methyl-1H-indazole-5-carboxamide], the IC50 was 5.65 ± 0.48 nM. Work on COc1ccc(NC(=O)c2ccc3[nH]ncc3c2)cc1OC [Example 7, N-(3,4-dimethoxyphenyl)-1H-indazole-5-carboxamide] yielded an IC50 of 1400 ± 56 nM. Cn1cc2cc(C(=O)Nc3ccc(Cl)c(Cl)c3)ccc2n1 [Example 14, N-(3,4-dichlorophenyl)-2-methyl-2H-indazole-5-carboxamide] showed an IC50 of 22.5 ± 0.6 nM.

Target: T2, human MAO-B (Homo sapiens, UniProt P27338)
T2 sequence (P27338 1-520): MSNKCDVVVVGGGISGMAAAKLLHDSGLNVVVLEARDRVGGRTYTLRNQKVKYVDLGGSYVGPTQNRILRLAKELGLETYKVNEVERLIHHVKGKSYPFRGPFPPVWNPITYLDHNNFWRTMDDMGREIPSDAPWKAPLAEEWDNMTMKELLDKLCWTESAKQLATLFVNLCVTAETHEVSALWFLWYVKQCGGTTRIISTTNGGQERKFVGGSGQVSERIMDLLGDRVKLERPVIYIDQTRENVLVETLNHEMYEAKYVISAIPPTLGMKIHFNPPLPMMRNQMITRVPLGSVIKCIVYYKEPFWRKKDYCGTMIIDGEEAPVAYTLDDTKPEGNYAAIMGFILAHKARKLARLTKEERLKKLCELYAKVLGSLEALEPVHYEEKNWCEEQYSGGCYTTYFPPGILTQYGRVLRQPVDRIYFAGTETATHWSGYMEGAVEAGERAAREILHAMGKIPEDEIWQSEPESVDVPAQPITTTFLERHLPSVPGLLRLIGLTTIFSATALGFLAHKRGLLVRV
Assay: Human MAO-B assay (recombinant enzyme, Amplex Red fluorescence)
Format: biochemical
Design: purchased Sigma-Aldrich M7441; host or cells: baculovirus-infected insect cells (microsomal product)
Conditions: p-tyramine 150 μM
For Cn1cc2cc(C(=O)Nc3ccc(F)c(Cl)c3)ccc2n1 [Example 18, N-(3-chloro-4-fluorophenyl)-2-methyl-2H-indazole-5-carboxamide], the IC50 was 8.08 ± 1.05 nM. For Cn1cc2cc(C(=O)Nc3ccc(F)c(F)c3)ccc2n1 [Example 20, N-(3,4-difluorophenyl)-2-methyl-2H-indazole-5-carboxamide], the IC50 was 38.4 ± 1.8 nM. In the case of O=C(Nc1cnc(Cl)c(Cl)c1)c1ccc2[nH]ncc2c1 [Example 12, N-(5,6-dichloropyridin-3-yl)-1H-indazole-5-carboxamide], the IC50 is reported as 5.42 ± 0.2 nM. Work on Cn1ncc2cc(C(=O)Nc3ccc(F)c(F)c3)ccc21 [Example 19, N-(3,4-difluorophenyl)-1-methyl-1H-indazole-5-carboxamide] yielded an IC50 of 1.52 ± 0.18 nM. Molecule COc1ccc(NC(=O)c2ccc3[nH]ncc3c2)cc1OC [Example 7, N-(3,4-dimethoxyphenyl)-1H-indazole-5-carboxamide] has an IC50 of 185 ± 21 nM. Work on Cn1cc2cc(C(=O)Nc3ccc(Cl)c(Cl)c3)ccc2n1 [Example 14, N-(3,4-dichlorophenyl)-2-methyl-2H-indazole-5-carboxamide] yielded an IC50 of 1.44 ± 0.41 nM.

Test system: not given
Assay: not given
Conditions: not given
COc1ccc(NC(=O)c2ccc3[nH]ncc3c2)cc1OC [Example 7, N-(3,4-dimethoxyphenyl)-1H-indazole-5-carboxamide] gave a melting point of 258.3 to 261.3 °C.

Target: T3, rat MAO-A (Rattus norvegicus, UniProt P21396)
T3 construct: from tissue; host or cells: rat liver mitochondria (male Sprague-Dawley rats)
T3 sequence (P21396 1-526): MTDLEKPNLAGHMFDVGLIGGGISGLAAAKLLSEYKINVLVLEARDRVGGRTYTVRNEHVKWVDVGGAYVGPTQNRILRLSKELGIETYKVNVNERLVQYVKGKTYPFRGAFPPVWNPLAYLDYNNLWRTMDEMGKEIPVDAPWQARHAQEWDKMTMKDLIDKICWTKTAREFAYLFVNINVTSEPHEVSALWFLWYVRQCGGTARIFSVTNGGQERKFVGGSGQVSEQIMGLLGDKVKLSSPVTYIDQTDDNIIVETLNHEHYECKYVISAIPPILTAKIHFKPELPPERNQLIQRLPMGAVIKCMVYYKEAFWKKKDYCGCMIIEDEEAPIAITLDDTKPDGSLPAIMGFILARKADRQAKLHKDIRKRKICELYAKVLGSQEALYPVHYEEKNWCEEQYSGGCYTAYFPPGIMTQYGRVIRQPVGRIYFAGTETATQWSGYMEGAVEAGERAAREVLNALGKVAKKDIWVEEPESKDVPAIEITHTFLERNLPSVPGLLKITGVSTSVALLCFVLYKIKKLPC
Assay: Rat MAO-A assay (Amplex Red fluorescence, rat liver mitochondria pre-treated with deprenyl)
Format: biochemical
Conditions: rat liver mitochondria, substrate p-tyramine; read-out: rat MAO-A (rat liver mitochondria) IC50
Molecule Cn1cc2cc(C(=O)Nc3ccc(F)c(Cl)c3)ccc2n1 [Example 18, N-(3-chloro-4-fluorophenyl)-2-methyl-2H-indazole-5-carboxamide] has an IC50 of 1690 ± 143 nM. For Cn1cc2cc(C(=O)Nc3ccc(F)c(F)c3)ccc2n1 [Example 20, N-(3,4-difluorophenyl)-2-methyl-2H-indazole-5-carboxamide], the IC50 was 1880 ± 93 nM. In the case of O=C(Nc1cnc(Cl)c(Cl)c1)c1ccc2[nH]ncc2c1 [Example 12, N-(5,6-dichloropyridin-3-yl)-1H-indazole-5-carboxamide], the IC50 is reported as under 10000 nM. Molecule Cn1ncc2cc(C(=O)Nc3ccc(F)c(F)c3)ccc21 [Example 19, N-(3,4-difluorophenyl)-1-methyl-1H-indazole-5-carboxamide] has an IC50 of over 10000 nM. Molecule COc1ccc(NC(=O)c2ccc3[nH]ncc3c2)cc1OC [Example 7, N-(3,4-dimethoxyphenyl)-1H-indazole-5-carboxamide] has an IC50 of over 10000 nM.

Same assay, conditions: read-out: rat MAO-A (rat liver mitochondria) % inhibition at 10 μM; at 10 μM, rat liver mitochondria
With Cn1cc2cc(C(=O)Nc3ccc(F)c(Cl)c3)ccc2n1 [Example 18, N-(3-chloro-4-fluorophenyl)-2-methyl-2H-indazole-5-carboxamide] the inhibition at 10 µM was 90%. Work on Cn1cc2cc(C(=O)Nc3ccc(F)c(F)c3)ccc2n1 [Example 20, N-(3,4-difluorophenyl)-2-methyl-2H-indazole-5-carboxamide] yielded an inhibition at 10 µM of 83%. For O=C(Nc1cnc(Cl)c(Cl)c1)c1ccc2[nH]ncc2c1 [Example 12, N-(5,6-dichloropyridin-3-yl)-1H-indazole-5-carboxamide], the inhibition at 10 µM was 59%. Cn1ncc2cc(C(=O)Nc3ccc(F)c(F)c3)ccc21 [Example 19, N-(3,4-difluorophenyl)-1-methyl-1H-indazole-5-carboxamide] gave an inhibition at 10 µM of 18%. COc1ccc(NC(=O)c2ccc3[nH]ncc3c2)cc1OC [Example 7, N-(3,4-dimethoxyphenyl)-1H-indazole-5-carboxamide] gave an inhibition at 10 µM of 9%.

Target: T4, human MAO-A (Homo sapiens, UniProt P21397)
T4 sequence (P21397 1-527): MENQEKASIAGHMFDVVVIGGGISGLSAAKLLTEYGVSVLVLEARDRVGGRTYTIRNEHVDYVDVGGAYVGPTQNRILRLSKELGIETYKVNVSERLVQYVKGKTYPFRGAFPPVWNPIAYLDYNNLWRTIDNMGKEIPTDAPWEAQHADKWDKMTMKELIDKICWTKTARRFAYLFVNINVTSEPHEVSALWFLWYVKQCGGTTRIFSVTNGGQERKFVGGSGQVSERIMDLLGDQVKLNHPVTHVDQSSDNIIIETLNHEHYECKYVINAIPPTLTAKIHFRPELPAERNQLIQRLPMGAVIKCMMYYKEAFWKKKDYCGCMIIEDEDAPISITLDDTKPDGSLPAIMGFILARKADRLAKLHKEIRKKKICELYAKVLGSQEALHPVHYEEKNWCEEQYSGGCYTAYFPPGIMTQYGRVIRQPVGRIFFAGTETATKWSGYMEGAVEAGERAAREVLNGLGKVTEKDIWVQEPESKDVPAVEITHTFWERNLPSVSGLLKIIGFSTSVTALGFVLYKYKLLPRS
Assay: Human MAO-A assay (recombinant enzyme, Amplex Red fluorescence)
Conditions: not given
O=C(Nc1cnc(Cl)c(Cl)c1)c1ccc2[nH]ncc2c1 [Example 12, N-(5,6-dichloropyridin-3-yl)-1H-indazole-5-carboxamide] gave an IC50 of under 10000 nM. Cn1ncc2cc(C(=O)Nc3ccc(F)c(F)c3)ccc21 [Example 19, N-(3,4-difluorophenyl)-1-methyl-1H-indazole-5-carboxamide] gave an IC50 of over 10000 nM. Work on COc1ccc(NC(=O)c2ccc3[nH]ncc3c2)cc1OC [Example 7, N-(3,4-dimethoxyphenyl)-1H-indazole-5-carboxamide] yielded an IC50 of over 10000 nM.

Same assay, conditions: read-out: human MAO-A % inhibition at 10 μM
Cn1cc2cc(C(=O)Nc3ccc(F)c(Cl)c3)ccc2n1 [Example 18, N-(3-chloro-4-fluorophenyl)-2-methyl-2H-indazole-5-carboxamide] gave an inhibition at 10 µM of 95%. For O=C(Nc1cnc(Cl)c(Cl)c1)c1ccc2[nH]ncc2c1 [Example 12, N-(5,6-dichloropyridin-3-yl)-1H-indazole-5-carboxamide], the inhibition at 10 µM was 52%. With Cn1ncc2cc(C(=O)Nc3ccc(F)c(F)c3)ccc21 [Example 19, N-(3,4-difluorophenyl)-1-methyl-1H-indazole-5-carboxamide] the inhibition at 10 µM was 46%. Work on COc1ccc(NC(=O)c2ccc3[nH]ncc3c2)cc1OC [Example 7, N-(3,4-dimethoxyphenyl)-1H-indazole-5-carboxamide] yielded an inhibition at 10 µM of 9%.

Same assay, conditions: read-out: human MAO-A IC50; recombinant human enzyme, p-tyramine 150 μM
In the case of Cn1cc2cc(C(=O)Nc3ccc(F)c(Cl)c3)ccc2n1 [Example 18, N-(3-chloro-4-fluorophenyl)-2-methyl-2H-indazole-5-carboxamide], the IC50 is reported as 562 ± 62 nM. For Cn1cc2cc(C(=O)Nc3ccc(F)c(F)c3)ccc2n1 [Example 20, N-(3,4-difluorophenyl)-2-methyl-2H-indazole-5-carboxamide], the IC50 was 764 ± 40 nM.
